In patent US6153740A, “cDNA encoding nucleoside transporter” (University of Alberta, priority 1997, dated 2000):
Blank lines part the entries; values can stand above or below the molecule they belong to.

Key:
CNT1 [1] = target: T1, CNT1 (Rattus norvegicus, UniProt Q62674); experiment: uptake/influx of radiolabelled nucleosides in Xenopus oocytes injected with pQQH1 (rat CNT1) cRNA; format: cell-based; conditions: for mediated flux, rCNT1: 10 μM permeant (FIG. 14); for mediated influx, rCNT1 (adenosine/deoxyadenosine comparison): separate experiment, inset FIG. 14A
T1 sequence (Q62674 1-648): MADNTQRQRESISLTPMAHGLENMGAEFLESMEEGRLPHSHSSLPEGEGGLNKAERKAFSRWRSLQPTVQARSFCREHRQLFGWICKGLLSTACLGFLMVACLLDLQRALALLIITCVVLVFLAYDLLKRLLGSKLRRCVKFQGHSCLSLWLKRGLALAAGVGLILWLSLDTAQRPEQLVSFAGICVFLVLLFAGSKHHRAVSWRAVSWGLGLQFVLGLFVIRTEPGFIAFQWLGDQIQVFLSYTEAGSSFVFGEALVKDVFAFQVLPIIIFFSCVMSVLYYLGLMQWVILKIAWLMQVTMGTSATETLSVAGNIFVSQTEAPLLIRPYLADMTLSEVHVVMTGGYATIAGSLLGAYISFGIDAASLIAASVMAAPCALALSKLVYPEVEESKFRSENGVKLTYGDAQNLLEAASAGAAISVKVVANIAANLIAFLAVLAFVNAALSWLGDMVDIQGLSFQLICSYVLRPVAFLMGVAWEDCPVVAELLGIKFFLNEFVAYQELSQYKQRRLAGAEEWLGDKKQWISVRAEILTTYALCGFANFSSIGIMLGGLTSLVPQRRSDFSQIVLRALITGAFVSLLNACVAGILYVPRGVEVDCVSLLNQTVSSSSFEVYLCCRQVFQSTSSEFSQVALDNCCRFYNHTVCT
Procedure: (§1) Oocytes were injected with water or RNA transcribed in vitro from the nucleoside transporter cDNA (pQQH1). […] For panels c and d, the permeant concentration was 10 μM and competing nonradioactive nucleosides were present at a concentration of 1 mM.
Oocytes injected with water or in vitro transcribed RNA from pQQH1 were incubated with radiolabeled permanent (10 μM) for 30 min (open columns) or 1 h (hatched columns) at 20° C. Each value represents the mean ±S. E. of 8-10 ooctyes.
(§2) Remaining template was removed by digestion with RQ1 DNase. Oocytes were treated with collagenase to remove follicular layers (Huang et al, 1993) and injected with 10 ng of pQQH1 cRNA or water. […] At the end of the incubation, extracellular label was removed by six rapid ice-cold washes in the appropriate transport buffer. Individual oocytes were dissolved in 5% SDS for quantitation of oocyte-associated ^3 H by liquid scintillation counting (LS 6000 IC, Beckman).

[2] = tested on: human erythrocyte es transporter; conditions: cited from earlier work
[3] = cited from earlier work
rat jejunum = experiment: uptake of [3H]AZT by rat jejunum in vivo
hCNT1a [4] = target: T2, hCNT1a (Homo sapiens, UniProt O00337); experiment: inhibition of hCNT1a-mediated influx of [3H]uridine in Xenopus oocytes
T2 sequence (O00337 with tags, fused parts or gaps E34G/INS140V): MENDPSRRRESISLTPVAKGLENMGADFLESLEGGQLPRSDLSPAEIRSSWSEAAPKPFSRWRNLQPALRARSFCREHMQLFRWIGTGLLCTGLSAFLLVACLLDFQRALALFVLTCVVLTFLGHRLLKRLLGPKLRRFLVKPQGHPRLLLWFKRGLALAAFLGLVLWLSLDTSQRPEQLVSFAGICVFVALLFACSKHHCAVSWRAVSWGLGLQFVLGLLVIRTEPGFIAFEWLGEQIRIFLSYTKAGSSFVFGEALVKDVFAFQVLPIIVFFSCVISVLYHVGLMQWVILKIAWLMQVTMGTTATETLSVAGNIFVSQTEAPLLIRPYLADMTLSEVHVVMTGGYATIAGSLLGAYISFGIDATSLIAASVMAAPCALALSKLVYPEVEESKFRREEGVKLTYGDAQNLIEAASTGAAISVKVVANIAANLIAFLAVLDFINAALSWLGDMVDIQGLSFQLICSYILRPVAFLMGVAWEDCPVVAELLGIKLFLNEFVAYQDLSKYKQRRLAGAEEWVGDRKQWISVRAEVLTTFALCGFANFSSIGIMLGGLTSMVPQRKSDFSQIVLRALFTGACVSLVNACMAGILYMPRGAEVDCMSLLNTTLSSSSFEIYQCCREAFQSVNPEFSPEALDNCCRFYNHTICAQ
Procedure: (§3) H2 O, water-injected oocytes. Fluxes were not corrected for the contribution of endogenous transport activity.
(§4) Defolliculated oocytes (Huang et al. 1993) were injected with either 10 nl of water containing 10 ng RNA transcript or 10 nl of water alone. Nucleoside uptake was measured after 3 d and was traced with the respective [^3 H] or [^14 C]nucleoside (Moravek Biochemicals)(5 μC 3H/ml, 1 μC 14C/ml). […] The transport buffer for adenosine influx experiments contained 1 μM deoxycoformycin to inhibit adenosine deaminase activity. Results are presented as means ±SEM for 10-12 individual oocytes. Kinetic constants were determined by non-linear regression analysis (ENZFITTER, Elsevier-Biosoft). Each experiment was performed at least twice on different batches of oocytes.

kidney = conditions: humans, mice (adenosine also rat); cited from earlier work
cit transporter = conditions: Terasaki et al, 1993; cited from earlier work
CNT1 [5] = target: T1, CNT1; experiment: inhibition of CNT1-mediated nucleoside (uridine, AZT, ddC) transport in Xenopus oocytes; format: cell-based
Procedure: as §1, §2

human erythrocytes = conditions: cited from earlier work
hCNT1b = target: T3, hCNT1b (Homo sapiens, UniProt O00337); experiment: inhibition of hCNT1b-mediated influx of [3H]uridine in Xenopus oocytes; format: cell-based; conditions: uridine 10 μM
T3 sequence (O00337 2-649 V189I/N409S/D521N): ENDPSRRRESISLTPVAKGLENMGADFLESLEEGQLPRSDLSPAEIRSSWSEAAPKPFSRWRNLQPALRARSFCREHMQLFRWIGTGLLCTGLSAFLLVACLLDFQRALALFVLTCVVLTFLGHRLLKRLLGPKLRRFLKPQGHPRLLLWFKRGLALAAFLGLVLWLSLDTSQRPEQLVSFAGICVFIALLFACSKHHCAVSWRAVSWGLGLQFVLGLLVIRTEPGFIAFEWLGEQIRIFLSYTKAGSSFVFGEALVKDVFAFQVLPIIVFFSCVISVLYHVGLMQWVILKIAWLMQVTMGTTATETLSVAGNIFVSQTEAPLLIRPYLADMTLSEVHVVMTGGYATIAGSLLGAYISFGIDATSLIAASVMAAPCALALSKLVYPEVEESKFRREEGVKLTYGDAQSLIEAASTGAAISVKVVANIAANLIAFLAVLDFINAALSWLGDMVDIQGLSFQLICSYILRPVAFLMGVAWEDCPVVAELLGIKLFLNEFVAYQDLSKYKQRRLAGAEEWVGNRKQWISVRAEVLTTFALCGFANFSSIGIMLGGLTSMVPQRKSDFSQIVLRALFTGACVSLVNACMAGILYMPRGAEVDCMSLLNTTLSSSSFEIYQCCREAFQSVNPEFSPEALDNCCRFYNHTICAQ
Source text: H2 O, water-injected oocytes.

CNT1 [6] = target: T1, CNT1; conditions: cited from earlier work
hCNT1a [7] = target: T2, hCNT1a; experiment: influx of radiolabelled nucleosides in Xenopus oocytes injected with hCNT1a RNA transcript; conditions: for mediated flux, hCNT1a: 10 μM permeant (FIG. 14); for mediated influx, hCNT1a (adenosine/deoxyadenosine comparison): separate experiment, inset FIG. 14A
Procedure: Oocytes were injected with either water alone or water containing hCNT1a RNA transcript.
Oocytes were injected with either water alone (.tangle-solidup.) or water containing hCNT1a RNA transcript (.smallcircle.,.circle-solid.).
Adenosine, guanosine and AZT (10 μM) fluxes were compared in the same batch of oocytes injected either with water (open columns) or with RNA transcript for hCNT1a or rCNT1 (hatched and solid columns, respectively).
as §4

ei transporters = conditions: Paterson et al, 1991; cited from earlier work
CNT1 [8] = target: T1, CNT1; experiment: inhibition of CNT1-mediated nucleoside (uridine, AZT, ddC) transport in Xenopus oocytes; format: cell-based; conditions: 1 μM
[9] = tested on: isolated perfused rat kidneys; conditions: secreted at higher concentrations; Trimble and Coulson, 1984; cited from earlier work
CNT1 [10] = target: T1, CNT1; conditions: Yao et al. unpublished; read-out: inhibition constant, recombinant rCNT1; cited from earlier work
hCNT1a [11] = target: T2, hCNT1a; experiment: cell-based
Procedure: as §3, §4

[12] = substrate: Nc1ccn([C@H]2CC[C@@H](CO)O2)c(=O)n1; experiment: uptake/influx of radiolabelled nucleosides in Xenopus oocytes injected with pQQH1 (rat CNT1) cRNA; format: cell-based; conditions: other: rate versus concentration studies, pH 7.5, 20.0 °C
Procedure: Oocytes were injected with water or RNA transcribed in vitro from the nucleoside transporter cDNA (pQQH1). Each value represents the mean ±S.E. of 8-10 oocytes. […] Apparent Km and Vmax values were determined by non-linear regression analysis (ENZFITTER, Elsevier-Biosoft). […] Panel d: thymidine transport in oocytes injected with pQQH1 cRNA. For panels c and d, the permeant concentration was 10 μM and competing nonradioactive nucleosides were present at a concentration of 1 mM. Fluxes were not corrected for the small (<0.1%) contribution of endogenous activity. […]
Expression of cNT1 in Oocytes-Plasmid pQQH1 DNA was linearized with Xbal and transcribed with T7 polymerase in the presence of the m^7 GpppG cap using the MEGAscript (Ambion) transcription system. […] Nucleoside uptake was measured after 3 days and was traced with the respective ^3 H-labeled nucleoside (Moravek Biochemicals)(20 μC/ml), which was purified by high performance liquid chromatography before use. […] Individual oocytes were dissolved in 5% SDS for quantitation of oocyte-associated ^3 H by liquid scintillation counting (LS 6000 IC, Beckman).
Defolliculated oocytes (Huang et al. 1993) were injected with either 10 nl of water containing 10 ng RNA transcript or 10 nl of water alone. Nucleoside uptake was measured after 3 d and was traced with the respective [^3 H] or [^14 C]nucleoside (Moravek Biochemicals)(5 μC 3H/ml, 1 μC 14C/ml). […]

[13] = substrate: O=c1ccn([C@@H]2O[C@H](CO)[C@@H](O)[C@H]2O)c(=O)[nH]1; experiment: cells, lysate or membranes; conditions: other: rat CNT1, 20° C., pH 7.5
[14] = Fang et al, 1996, Yao et al. unpublished

Molecule: Cc1cn([C@H]2C[C@H](N=[N+]=[N-])[C@@H](CO)O2)c(=O)[nH]c1=O [AZT, 3'-azido-3'-deoxythymidine]
CNT1-mediated uptake/transport (CNT1 [1]; 10 μM permeant): large increases | mediated flux, rCNT1 (CNT1 [1]): 4.10±0.34 pmol/oocyte.10 min^-1 | Na+ dependence of initial rate of expressed uptake (CNT1 [1]; 10 μM, 10-min flux): 77% | Vmax (CNT1 [1]; rat CNT1, permeant = labelled substance): 28 pmol/oocyte.min^-1 | Km (CNT1 [1]; rate versus concentration studies, rat CNT1, read-out: apparent Km): 490 µM | transport by equilibrative nucleoside transporters [2]: not transported | excretion in the urine ([3]; Good et al. 1990, Griffiths et al. 1992): excreted in the urine either unchanged or as the glucuronide conjugate | absorption by the gastrointestinal systems of humans and rats ([3]; oral): absorbed efficiently | uptake of [3H]AZT by rat jejunum in vivo (rat jejunum): Na^+ -dependent | inhibition of hCNT1a-mediated influx of uridine (hCNT1a [4]; uridine 10 μM, analog 5 mM (FIG. 12A)): inhibited | net renal handling (kidney): net renal secretion | cit-mediated uridine transport, inhibition (cit transporter): inhibited | IC50 (CNT1 [5]): < 1000 µM | rate of entry into human erythrocytes relative to those of thymidine and cytidine (human erythrocytes): < 2% | inhibition of hCNT1b-mediated influx of uridine (hCNT1b; analog 5 mM (FIG. 12B)): inhibited | transport by recombinant rCNT1 in oocytes (CNT1 [6]; Yao et al. in press): transports AZT | transport by hCNT1 (hCNT1a [7]): transport | mediated flux, hCNT1a (hCNT1a [7]): 4.79±0.41 pmol/oocyte.10 min^-1

effect on CNT1 transport (CNT1 [8]): unaffected
Molecule: O=[N+]([O-])c1ccc(CSc2ncnc3c2ncn3[C@@H]2O[C@H](CO)[C@@H](O)[C@H]2O)cc1 [NBMPR, 6-[(4-nitrobenzyl)thio]-9-p-D-ribofuranosylpurine]
sensitivity of ei systems to inhibition (ei transporters): low (micromolar) sensitivity | inhibition of equilibrative nucleoside transport in human erythrocytes, concentrations ([2]; Young and Jarvis, 1983, Paterson et al): namomolar concentrations

Molecule: Nc1ncnc2c1ncn2[C@@H]1O[C@H](CO)[C@@H](O)[C@H]1O [adenosine]
uridine:adenosine flux ratio, rCNT1 (CNT1 [1]; 10 μM): 110 | mediated flux, rCNT1 (CNT1 [1]): 0.51±0.05 pmol/oocyte.10 min^-1 | mediated influx, rCNT1 (adenosine/deoxyadenosine comparison) (CNT1 [1]; 10 μM): 0.70±0.0 pmol/oocyte.10 min^-1 | Ki (hCNT1a [4]): 50 ± 11 µM | inhibition of uridine fluxes, hCNT1a (hCNT1a [4]; uridine 10 μM, competitor 1 mM (FIG. 12A), guanosine also in FIG. 13): inhibited | net renal handling (kidney): net renal reabsorption | plasma concentration at which adenosine is reabsorbed [9]: less than 50 μM | selective inhibition of uridine and thymidine fluxes (rCNT1) (CNT1 [5]; adenosine, thymidine, cytidine, uridine>>guanosine, inosine): selective inhibition | Ki (CNT1 [10]): 29 µM | inhibition of uridine fluxes, hCNT1b (hCNT1b; competitor 1 mM (FIG. 12B)): inhibited | Vmax relative to uridine, recombinant rCNT1 (CNT1 [6]; [14]): lower Vmax | affinity of transport by recombinant rCNT1 (CNT1 [6]; [14]): same high affinity as uridine | uridine:adenosine flux ratio, hCNT1a (hCNT1a [7]; 10 μM): 75 | mediated flux, hCNT1a (hCNT1a [7]): 0.49±0.03 pmol/oocyte.10 min^-1 | mediated influx, hCNT1a (adenosine/deoxyadenosine comparison) (hCNT1a [7]; 10 μM): 0.60±0.01 pmol/oocyte.10 min^-1

mediated influx, rCNT1 (adenosine/deoxyadenosine comparison) (CNT1 [1]; 10 μM): 0.11±0.02 pmol/oocyte.10 min^-1 | Ki (hCNT1a [11]): 46 ± 14 µM | permeant quality, hCNT1 (hCNT1a [7]): poor hCNT1 permeants | mediated influx, hCNT1a (adenosine/deoxyadenosine comparison) (hCNT1a [7]; 10 μM): 0.14±0.02 pmol/oocyte.10 min^-1
Molecule: Nc1ncnc2c1ncn2[C@H]1C[C@H](O)[C@@H](CO)O1 [deoxyadenosine, 2'-deoxyadenosine]
net renal handling (kidney): net renal secretion

B1: CNT1 (Rattus norvegicus) (protein)
chain: MADNTQRQRESISLTPMAHGLENMGAEFLESMEEGRLPHSHSSLPEGEGGLNKAERKAFSRWRSLQPTVQARSFCREHRQLFGWICKGLLSTACLGFLMVACLLDLQRALALLIITCVVLVFLAYDLLKRLLGSKLRRCVKFQGHSCLSLWLKRGLALAAGVGLILWLSLDTAQRPEQLVSFAGICVFLVLLFAGSKHHRAVSWRAVSWGLGLQFVLGLFVIRTEPGFIAFQWLGDQIQVFLSYTEAGSSFVFGEALVKDVFAFQVLPIIIFFSCVMSVLYYLGLMQWVILKIAWLMQVTMGTSATETLSVAGNIFVSQTEAPLLIRPYLADMTLSEVHVVMTGGYATIAGSLLGAYISFGIDAASLIAASVMAAPCALALSKLVYPEVEESKFRSENGVKLTYGDAQNLLEAASAGAAISVKVVANIAANLIAFLAVLAFVNAALSWLGDMVDIQGLSFQLICSYVLRPVAFLMGVAWEDCPVVAELLGIKFFLNEFVAYQELSQYKQRRLAGAEEWLGDKKQWISVRAEILTTYALCGFANFSSIGIMLGGLTSLVPQRRSDFSQIVLRALITGAFVSLLNACVAGILYVPRGVEVDCVSLLNQTVSSSSFEVYLCCRQVFQSTSSEFSQVALDNCCRFYNHTVCT
notes: identified as pQQH1, has an open reading frame encoding a 648-amino acid protein; expressed in transfected cells; host or cells: Xenopus oocytes injected with pQQH1 cRNA
Km [12]: 510 µM | Km [13]: 37 µM
